Assay results as given in the supplement of paper PMC11451515.

System: SEM cells
Test: cell viability relative to DMSO control; higher = less cytotoxic
Settings: 48 h
Outline: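 Viability was expressed as a per-plate percentage of DMSO wells, with cell-free wells as background. Leukemia cells (NOMO1 or SEM at 500 cells/well, P12-Ichikawa at 1000 cells/well) were adapted for at least four passages in each medium and seeded in 1536-well plates (5 μl). Library compounds in DMSO were pin-dosed over an 11-point threefold series from 47 μM to 0.79 nM, and CellTiter-Glo One luminescence was read after 48 h at 37°C.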

[1] = HPLM + 10% dialyzed FBS, 0.000781 µM
[2] = HPLM + 10% dialyzed FBS, 0.00234 µM
[3] = HPLM + 10% dialyzed FBS, 0.00702 µM
[4] = HPLM + 10% dialyzed FBS, 0.0211 µM
[5] = HPLM + 10% dialyzed FBS, 0.0632 µM
[6] = HPLM + 10% dialyzed FBS, 0.19 µM
[7] = HPLM + 10% dialyzed FBS, 0.569 µM
[8] = HPLM + 10% dialyzed FBS, 1.71 µM
[9] = HPLM + 10% dialyzed FBS, 5.12 µM
[10] = HPLM + 10% dialyzed FBS, 15.4 µM
[11] = HPLM + 10% dialyzed FBS, 46.1 µM
[12] = RPMI 5 mM glucose + 10% FBS, 0.000781 µM
[13] = RPMI 5 mM glucose + 10% FBS, 0.00234 µM
[14] = RPMI 5 mM glucose + 10% FBS, 0.00702 µM
[15] = RPMI 5 mM glucose + 10% FBS, 0.0211 µM
[16] = RPMI 5 mM glucose + 10% FBS, 0.0632 µM
[17] = RPMI 5 mM glucose + 10% FBS, 0.19 µM
[18] = RPMI 5 mM glucose + 10% FBS, 0.569 µM
[19] = RPMI 5 mM glucose + 10% FBS, 1.71 µM
[20] = RPMI 5 mM glucose + 10% FBS, 5.12 µM
[21] = RPMI 5 mM glucose + 10% FBS, 15.4 µM
[22] = RPMI 5 mM glucose + 10% FBS, 46.1 µM
[23] = RPMI 5 mM glucose + 10% dialyzed FBS, 0.000781 µM
[24] = RPMI 5 mM glucose + 10% dialyzed FBS, 0.00234 µM
[25] = RPMI 5 mM glucose + 10% dialyzed FBS, 0.00702 µM
[26] = RPMI 5 mM glucose + 10% dialyzed FBS, 0.0211 µM
[27] = RPMI 5 mM glucose + 10% dialyzed FBS, 0.0632 µM
[28] = RPMI 5 mM glucose + 10% dialyzed FBS, 0.19 µM
[29] = RPMI 5 mM glucose + 10% dialyzed FBS, 0.569 µM
[30] = RPMI 5 mM glucose + 10% dialyzed FBS, 1.71 µM
[31] = RPMI 5 mM glucose + 10% dialyzed FBS, 5.12 µM
[32] = RPMI 5 mM glucose + 10% dialyzed FBS, 15.4 µM
[33] = RPMI 5 mM glucose + 10% dialyzed FBS, 46.1 µM

Row | Structure (SMILES) | cell viability [1] [%] | cell viability [2] [%] | cell viability [3] [%] | cell viability [4] [%] | cell viability [5] [%] | cell viability [6] [%] | cell viability [7] [%] | cell viability [8] [%] | cell viability [9] [%] | cell viability [10] [%] | cell viability [11] [%] | cell viability [12] [%] | cell viability [13] [%] | cell viability [14] [%] | cell viability [15] [%] | cell viability [16] [%] | cell viability [17] [%] | cell viability [18] [%] | cell viability [19] [%] | cell viability [20] [%] | cell viability [21] [%] | cell viability [22] [%] | cell viability [23] [%] | cell viability [24] [%] | cell viability [25] [%] | cell viability [26] [%] | cell viability [27] [%] | cell viability [28] [%] | cell viability [29] [%] | cell viability [30] [%] | cell viability [31] [%] | cell viability [32] [%] | cell viability [33] [%]
1 | CC(C)(C#N)c1cc(Cn2cncn2)cc(C(C)(C)C#N)c1 | 101 | 92.6 | 87.4 | 103 | 111 | 104 | 21.8 | 112 | 116 | 117 | 113 | 123 | 116 | 115 | 102 | 109 | 106 | 21.3 | 122 | 126 | 125 | 111 |  |  |  |  |  |  |  |  |  |  | 
2 | Cc1nn(Cc2ccccc2Cl)c(C)c1CN(C)CC(O)COc1ccc(Cl)cc1 (configuration not stated) | 95.7 | 98.1 | 103 | 119 | 100 | 102 | 109 | 104 | 105 | 41.8 | 46.9 | 100 | 109 | 93 | 112 | 110 | 116 | 107 | 114 | 105 | 41.1 | 41.4 | 109 | 91.8 | 107 | 103 | 113 | 89.9 | 97.2 | 101 | 95.8 | 39.2 | 38.3
3 | FC1=CC=C(C=C1)N2/C=C\C=C(C(=O)NC3=CC=C(OC4=C5C=C[NH]C5=NC=C4)C(=C3)F)/C2=O | 92.6 | 101 | 104 | 112 | 106 | 109 | 115 | 107 | 99.9 | 77.3 | 75.4 | 72.6 | 69.9 | 65.1 | 76 | 67.1 | 68.1 | 73 | 71.6 | 60.5 | 46.9 | 40 | 101 | 96.9 | 98.7 | 111 | 119 | 111 | 121 | 102 | 95.7 | 74.8 | 55.4
4 | OC(c1cc(C(F)(F)F)nc2c(C(F)(F)F)cccc12)C1CCCCN1 (configuration not stated) | 103 | 115 | 109 | 116 | 117 | 139 | 91.8 | 54.7 | 126 | 132 | 7.71 | 117 | 118 | 131 | 149 | 133 | 138 | 93.9 | 63.4 | 132 | 114 | 9.68 | 117 | 130 | 122 | 136 | 135 | 129 | 81.2 | 47.8 | 137 | 130 | 10.3
5 | C[N]1C=C(C=N1)C2=C3\C=N/NC(=O)C4=C3C(=CC(=C4)NC(=O)[C@H](N)C5CCCCC5)[NH]2 | 87.7 | 56.3 | 85.5 | 101 | 79 | 90.8 | 68 | 58.3 | 36.5 | 20.7 | 11.6 | 101 | 67.1 | 94.4 | 99.2 | 92.9 | 103 | 81.3 | 50.8 | 34.5 | 22 | 8.73 | 79.8 | 50.8 | 95.1 | 86.2 | 89.5 | 90 | 59.3 | 42.2 | 25 | 15.4 | 7.21
6 | CNc1nc(Nc2ccc(C(=O)N3CCOCC3)cc2OC)ncc1Cl |  |  |  |  |  |  |  |  |  |  |  | 107 | 120 | 101 | 104 | 113 | 107 | 70.9 | 128 | 97.9 | 92.4 | 42.2 | 123 | 106 | 118 | 111 | 120 | 114 | 78.5 | 114 | 131 | 105 | 68.8
7 | C[C@@H](Oc1cc(-c2cnn(C3CCNCC3)c2)cnc1N)c1c(Cl)ccc(F)c1Cl | 105 | 121 | 123 | 124 | 121 | 114 | 111 | 110 | 61.6 | 35.1 | 23.5 | 81.4 | 78.5 | 85.6 | 83.6 | 82.5 | 71.3 | 83.4 | 77.3 | 58.4 | 29.5 | 13.6 | 112 | 124 | 114 | 114 | 97.1 | 113 | 120 | 116 | 91.5 | 33.3 | 28.3
8 | CCC[S+]([O-])c1ccc2[nH]c(NC(=O)OC)nc2c1 (configuration not stated) | 78.9 | 96.2 | 111 | 86.7 | 100 | 105 | 83.1 | 94.9 | 94.6 | 38.2 | 33.4 | 74.9 | 99.4 | 100 | 99.3 | 114 | 93.9 | 82 | 84.9 | 91.8 | 24.4 | 32.2 | 72.7 | 99.8 | 95.9 | 109 | 101 | 113 | 83.1 | 105 | 98.6 | 23.2 | 17.3
